# Measurements: patent publication US7759345B2, “Antitumoral derivatives of ET-743” (priority 2001, dated 2010)
# Read-outs that look alike come from different tables or passages of the source.
# Assays:
# A-549 = assay: Inhibition of cells growth by colorimetric assay (SRB), A-549; format: cell-based; details: for GI50 / LC50 (concentration for 50% cell killing): Homo sapiens, A549, 48 h
# Procedure, shortened: (§1)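 Growth inhibition is measured by sulforhodamine B staining of TCA-fixed cells after 48 h of compound exposure across 10 to 10^−8 μg/ml. Cells are seeded at 5×10^3 per well and grown drug-free for 18 h beforehand; absorbance at 490 nm yields GI, TGI and LC values.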
# SK-MEL-28 = assay: Inhibition of cells growth by colorimetric assay (SRB), SK-MEL-28; format: cell-based; details: for GI50 / CC50: Homo sapiens, SK-MEL-28, 48 h
# Procedure, shortened: as §1
# HT-29 = assay: Inhibition of cells growth by colorimetric assay (SRB), HT-29; format: cell-based; details: for GI50 / LC50 (concentration for 50% cell killing): Homo sapiens, HT-29, 48 h
# Procedure, shortened: as §1
# SW620 = assay: Inhibition of cells growth by colorimetric assay (SRB), SW620; format: cell-based; details: for LC50 / GI50: Homo sapiens
# Description: (§2) 2°.—Inhibition of Cells Growth by Colorimetric Assay.
# (§3) A colorimetric type of assay, using sulforhodamine B (SRB) reaction has been adapted for a quantitative measurement of cell growth and viability [following the technique described by Philip Skehan, et al. (1990), New colorimetric cytotoxicity assay for anticancer drug screening, J. Natl. Cancer Inst., 82:1107-1112]
# (§4) This form of the assay employs 96 well cell culture microplates of 9 mm diameter (Faircloth, 1988; Mosmann, 1983). Most of the cell lines are obtained from American Type Culture Collection (ATCC) derived from different human cancer types.
# (§5) Cells are maintained in RPMI 1640 10% FBS, supplemented with 0.1 g/l penicillin and 0.1 g/l streptomycin sulfate and then incubated at 37° C., 5% CO2 and 98% humidity. For the experiments, cells were harvested from subconfluent cultures using trypsin and resuspended in fresh medium before plating.
# (§6) Cells are seeded in 96 well microtiter plates, at 5×10^3 cells per well in aliquots of 195 μl medium, and they are allowed to attach to the plate surface by growing in drug free medium for 18 hours. Afterward, samples are added in aliquots of 5 μl in a ranging from 10 to 10^−8 μg/ml, dissolved in DMSO/EtOH/PBS (0.5:0.5:99). After 48 hours exposure, the antitumor effect are measured by the SRB methodology: cells are fixed by adding 50 μl of cold 50% (wt/vol) trichloroacetic acid (TCA) and incubating for 60 minutes at 4° C. Plates are washed with deionized water and dried. One hundred μl of SRB solution (0.4% wt/vol in 1% acetic acid) is added to each microtiter well and incubated for 10 minutes at room temperature. Unbound SRB is removed by washing with 1% acetic acid. Plates are air dried and bound stain is solubilized with Tris buffer. Optical densities are read on a automated spectrophotometric plate reader at a single wavelength of 490 nm.
# (§7) The values for mean+/−SD of data from triplicate wells are calculated. Some parameters for cellular responses can be calculated: GI=growth inhibition, TGI=total growth inhibition (cytostatic effect) and LC=cell killing (cytotoxic effect).
# (§8) Obtained results may predict the usefulness of a certain drug as a potential cancer treatment. For this technique, compounds which show GI50 values smaller than 10 μg/ml are selected to continue with further studies. GI50's data allow to predict that not only could a drug be cystostatic, but also it could have a potential in terms of tumor reduction.
# DU-145 = assay: Inhibition of cells growth by colorimetric assay (SRB), DU-145; format: cell-based; details: for GI50 / CC50: Homo sapiens, DU-145, 48 h
# Procedure, shortened: as §1
# MCF-7 = assay: Inhibition of cells growth by colorimetric assay (SRB), MCF-7; format: cell-based; details: for CC50 / GI50: Homo sapiens; for CC50: MCF7, 48 h; for GI50: MCF7
# Description: as §2, §3, §4, §5, §6, §7, §8
# MDA-MB-231 = assay: Inhibition of cells growth by colorimetric assay (SRB), MDA-MB-231; format: cell-based; details: for CC50 / GI50: Homo sapiens; for CC50: MDA-MB-231, 48 h; for GI50: MDA-MB-231
# Description: as §2, §3, §4, §5, §6, §7, §8
# A-498 = assay: Inhibition of cells growth by colorimetric assay (SRB), A-498; format: cell-based; details: for LC50 / GI50: Homo sapiens; for LC50: A498, 48 h; for GI50: A498
# Description: as §2, §3, §4, §5, §6, §7, §8
# [1] = SRB assay, 48 hours exposure, read-out: A-549 GI50
# [2] = read-out: A-549 LC50, SRB assay, 48 hours exposure
# [3] = SRB assay, 48 hours exposure, read-out: MEL-28 GI50
# [4] = read-out: MEL-28 LC50, SRB assay, 48 hours exposure
# [5] = SRB assay, 48 hours exposure, read-out: HT-29 GI50
# [6] = read-out: HT-29 LC50, SRB assay, 48 hours exposure
# [7] = SW-620, 48 h, read-out: SW-620 LC50
# [8] = SRB assay, 48 hours exposure, read-out: DU-145 GI50
# [9] = read-out: DU-145 LC50, SRB assay, 48 hours exposure
# [10] = SRB assay, 48 hours exposure, read-out: MCF GI50
# [11] = SRB assay, 48 hours exposure, read-out: MB-231 GI50
# [12] = SRB assay, 48 hours exposure, read-out: A-498 GI50
# Description for Heart: (§9) Toxicity was asssessed by the methods reported in Toxicology in Vitro, 15 (2001) 571-577, J. Luber Narod et al.: “Evaluation of the use of in vitro methodolodies as tools for screening new compounds for potential in vivo toxicity”.
# Description for Kidney: as §9
# Description for Liver: as §9
# Description for Myelo: as §9
# Description for Skeletal: as §9
smiles,measurement,setting,value
COc1cc2c(cc1OC(=O)CCCl)CCN[C@]21CS[C@@H]2c3c(OC(C)=O)c(C)c4c(c3[C@H](COC1=O)N1C2[C@H]2c3c(cc(C)c(OC)c3O)C[C@@H]([C@@H]1O)N2C)OCO4 (some centres unmarked) [Compound 73],TGI A-549,"A-549; A-549, SRB, 48 hours exposure",2.35E-09
same,GI50,"A-549; A-549, SRB, 48 hours exposure, read-out: GI50 A-549",0.352 nM
same,LC50 (concentration for 50% cell killing),"A-549; read-out: LC50 A-549, A-549, SRB, 48 hours exposure",5.87 nM
same,GI50,"SK-MEL-28; MEL-28, SRB, 48 hours exposure, read-out: GI50 MEL-28",0.822 nM
same,CC50,"SK-MEL-28; read-out: LC50 MEL-28, MEL-28, SRB, 48 hours exposure",3.52 nM
same,TGI MEL-28,"SK-MEL-28; MEL-28, SRB, 48 hours exposure",9.39E-10
same,TGI HT-29,"HT-29; HT-29, SRB, 48 hours exposure",7.04E-09
same,GI50,"HT-29; HT-29, SRB, 48 hours exposure, read-out: GI50 HT-29",0.939 nM
same,LC50 (concentration for 50% cell killing),"HT-29; read-out: LC50 HT-29, HT-29, SRB, 48 hours exposure",10.6 nM
same,LC50,"SW620; SW-620, 48 h, read-out: LC50 SW-620",9.39 nM
same,GI50,"SW620; SW-620, SRB, 48 hours exposure, read-out: GI50 SW-620",0.352 nM
same,TGI SW-620,"SW620; SW-620, SRB, 48 hours exposure",1.17E-09
same,TGI DU-145,"DU-145; DU-145, SRB, 48 hours exposure",3.52E-10
same,GI50,"DU-145; DU-145, SRB, 48 hours exposure, read-out: GI50 DU-145",0.235 nM
same,CC50,"DU-145; read-out: LC50 DU-145, DU-145, SRB, 48 hours exposure",0.939 nM
same,CC50,MCF-7; read-out: LC50 MCF,11.7 nM
same,GI50,"MCF-7; MCF, SRB, 48 hours exposure, read-out: GI50 MCF",0.704 nM
same,TGI MCF,"MCF-7; MCF, SRB, 48 hours exposure",3.52E-09
same,CC50,MDA-MB-231; read-out: LC50 MB-231,1.17 nM
same,GI50,"MDA-MB-231; MB-231, SRB, 48 hours exposure, read-out: GI50 MB-231",0.235 nM
same,TGI MB-231,"MDA-MB-231; MB-231, SRB, 48 hours exposure",4.69E-11
same,TGI A-498,"A-498; A-498, SRB, 48 hours exposure",7.04E-10
same,LC50,A-498; read-out: LC50 A-498,3.52 nM
same,GI50,"A-498; A-498, SRB, 48 hours exposure, read-out: GI50 A-498",0.352 nM
COc1cc2c(cc1O)CCN[C@]21CS[C@@H]2c3c(OC)c(C)c4c(c3[C@H](COC1=O)N1C2[C@H]2c3c(cc(C)c(OC)c3O)C[C@@H]([C@@H]1O)N2C)OCO4 (some centres unmarked) [Compound 182],GI50,A-549; [1],0.409 nM
same,LC50 (concentration for 50% cell killing),A-549; [2],68.1 nM
same,A-549 TGI,"A-549; SRB assay, 48 hours exposure",1.36E-09
same,GI50,SK-MEL-28; [3],0.409 nM
same,CC50,SK-MEL-28; [4],5.45 nM
same,MEL-28 TGI,"SK-MEL-28; SRB assay, 48 hours exposure",1.36E-09
same,GI50,HT-29; [5],0.272 nM
same,LC50 (concentration for 50% cell killing),HT-29; [6],1.36 nM
same,HT-29 TGI,"HT-29; SRB assay, 48 hours exposure",1.09E-09
same,GI50,"SW620; SW-620, 48 h, read-out: SW-620 GI50",1.09 nM
same,LC50,SW620; [7],13.6 nM
same,SW-620 TGI,"SW620; SRB assay, 48 hours exposure",4.09E-09
same,GI50,DU-145; [8],0.272 nM
same,CC50,DU-145; [9],1.09 nM
same,DU-145 TGI,"DU-145; SRB assay, 48 hours exposure",4.09E-10
same,CC50,MCF-7; read-out: MCF LC50,13.6 nM
same,GI50,MCF-7; [10],2.72 nM
same,MCF TGI,"MCF-7; SRB assay, 48 hours exposure",5.45E-09
same,CC50,MDA-MB-231; read-out: MB-231 LC50,8.17 nM
same,GI50,MDA-MB-231; [11],0.272 nM
same,MB-231 TGI,"MDA-MB-231; SRB assay, 48 hours exposure",6.81E-10
same,LC50,A-498; read-out: A-498 LC50,5.45 nM
same,GI50,A-498; [12],0.409 nM
same,A-498 TGI,"A-498; SRB assay, 48 hours exposure",1.36E-09
same,Toxicity Data Liver,Liver,3.98E-09
same,Toxicity Data Heart,Heart,3.95E-08
same,Toxicity Data Myelo,Myelo,3.19E-08
same,Toxicity Data Skeletal,Skeletal,1.49E-08
same,Toxicity Data Kidney,Kidney,1.26E-08
COc1cc2c(cc1O)CCN(C)[C@]21CS[C@@H]2c3c(OC(C)=O)c(C)c4c(c3[C@H](COC1=O)N1C2[C@@H]2N[C@@H](Cc3cc(C)c(OC)c(O)c32)[C@@H]1C#N)OCO4 (some centres unmarked) [Compound 209],GI50,A-549; [1],0.0909 nM
same,LC50 (concentration for 50% cell killing),A-549; [2],1.17 nM
same,A-549 TGI,"A-549; SRB assay, 48 hours exposure",3.90E-10
same,GI50,SK-MEL-28; [3],0.0649 nM
same,CC50,SK-MEL-28; [4],1.3 nM
same,MEL-28 TGI,"SK-MEL-28; SRB assay, 48 hours exposure",2.60E-10
same,GI50,HT-29; [5],0.0779 nM
same,LC50 (concentration for 50% cell killing),HT-29; [6],1.17 nM
same,HT-29 TGI,"HT-29; SRB assay, 48 hours exposure",3.90E-10
same,LC50,SW620; [7],1.3 nM
same,GI50,"SW620; SW-620, SRB assay, 48 hours exposure, read-out: SW-620 GI50",0.0779 nM
same,SW-620 TGI,"SW620; SRB assay, 48 hours exposure",3.90E-10
same,GI50,DU-145; [8],0.013 nM
same,CC50,DU-145; [9],0.13 nM
same,DU-145 TGI,"DU-145; SRB assay, 48 hours exposure",3.90E-11
same,CC50,MCF-7; read-out: MCF LC50,5.19 nM
same,GI50,MCF-7; [10],0.26 nM
same,MCF TGI,"MCF-7; SRB assay, 48 hours exposure",7.79E-10
same,CC50,MDA-MB-231; read-out: MB-231 LC50,1.3 nM
same,GI50,MDA-MB-231; [11],0.013 nM
same,MB-231 TGI,"MDA-MB-231; SRB assay, 48 hours exposure",2.60E-10
same,LC50,A-498; read-out: A-498 LC50,1.3 nM
same,GI50,A-498; [12],0.13 nM
same,A-498 TGI,"A-498; SRB assay, 48 hours exposure",3.90E-10
